Where no end group is shown, it is not given here.
B1: SEQ ID NO 34 (peptide)
peptide: HAEGTYTNDVTEYLEEKAAKEFIEWLIKGKPKKIRY
notes: also called nmGLP-1 analog

What was measured:
[1] = molecular target: T1, RINm5f cells expressing endogenous GLP-1, calcitonin, and GIP receptors (Rattus norvegicus, UniProt P32301); assay: GLP/GIP/CT cAMP (RIN) assay; type: cell-based
T1 construct: RINm5f cells expressing endogenous GLP-1, calcitonin, and GIP receptors; endogenous in cells; host or cells: RINm5f cells
T1 sequence (P32301 22-463): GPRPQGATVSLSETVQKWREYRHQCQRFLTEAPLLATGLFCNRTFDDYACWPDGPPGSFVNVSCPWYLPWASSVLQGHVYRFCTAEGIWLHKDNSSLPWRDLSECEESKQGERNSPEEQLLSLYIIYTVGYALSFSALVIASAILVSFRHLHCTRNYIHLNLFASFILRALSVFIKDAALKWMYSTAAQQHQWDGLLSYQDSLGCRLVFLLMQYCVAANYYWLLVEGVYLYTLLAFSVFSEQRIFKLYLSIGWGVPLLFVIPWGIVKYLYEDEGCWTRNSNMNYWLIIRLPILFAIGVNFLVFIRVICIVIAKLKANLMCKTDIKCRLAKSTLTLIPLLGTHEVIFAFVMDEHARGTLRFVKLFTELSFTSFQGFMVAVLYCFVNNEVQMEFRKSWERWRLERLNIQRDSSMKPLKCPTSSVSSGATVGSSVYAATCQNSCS
Description: In addition, receptor binding can be measured using cells prepared from confluent cultures of RINm5f cells expressing endogenous GLP-1, calcitonin, and GIP receptors. Cells, and peptide or buffer solution are combined in 384-well plates. After a 30-minute incubation at room temperature in air, cAMP content is measured as recommended in the Perkin-Elmer AlphaScreen kit instructions.
Cells, and peptide or buffer solutions are combined in 384-well plates and incubated at room temperature in air for 30-minutes. cAMP content can then be measured according to recommendations in the Perkin-Elmer AlphaScreen™ kit instructions using the Perkin Elmer Fusion fluorimeter and data are analyzed using XLfit software (IDBS).

[2] = molecular target: T2, GLP-1 receptor (RINm5F cell membranes) (Rattus norvegicus, UniProt P32301); assay: GLP-1 receptor binding assay (GLP RBA), [125I]GLP-1 displacement; settings: [125I]GLP-1 tracer
T2 construct: RINm5F insulinoma cells expressing endogenous GLP-1 receptors; endogenous in cells; host or cells: RINm5F cell membranes
T2 sequence (P32301 22-463): T1 sequence (P32301 22-463)
Description: Reaction mixtures are filtered through glass filter pads presoaked with 0.3% PEI solution and rinsed with ice-cold phosphate buffered saline. Bound counts are determined using a scintillation counter. Binding affinities are calculated using GraphPad Prism software (GraphPad Software, Inc., San Diego, Calif.).

[3] = molecular target: T3, GLP-1 receptor (endogenous, RINm5F cell membranes; rat thyroid carcinoma 6-23 clone 6 cells) (rat, UniProt P32301 22-463); assay: displacement of [125I]GLP-1 from RINm5F cell membranes (GLP RBA)
T3 construct: whole, on cells
T3 sequence (looked up): T1 sequence (P32301 22-463)
Description: GLP-1 receptor binding activity and affinity can be measured using a binding displacement assay in which the receptor source is RINm5F cell membranes, and the ligand is [¹²⁵I]GLP-1. Homogenized RINm5F cell membranes are incubated in 20 mM HEPES buffer with 40,000 cpm [¹²⁵I]GLP-1 tracer, and varying concentrations of test compound for 60 minutes at 23° C. with constant mixing. Reaction mixtures are filtered through glass filter pads presoaked with 0.3% PEI solution and rinsed with ice-cold phosphate buffered saline. Bound counts are determined using a scintillation counter. Binding affinities are calculated using GraphPad Prism software (GraphPad Software, Inc., San Diego, Calif.).

[4] = molecular target: T3, GLP-1 receptor (endogenous, RINm5F cell …); assay: cell-based or functional assay

Molecule | GLP/GIP/CT cAMP(RIN) EC50 [1] [nM] | IC50 [2] [nM] | other results
HADGTYTSDVSSYLQDQAAKDFITWLKSGQPKPDAVET-NH2 [compound 48] | 14 | 34 | 
HAEGTFTSDVTQQLDEKAAKEFIDWLINGGPSSGAPPPS-NH2 (C-terminus assumed) [compound 9] | 0.28 |  | 
YADAPYISDVYSYLQDQVAKKWLKSGQD-NH2 [compound 51] | 971 |  | 
CC[C@H](C)[C@H](NC(=O)[C@H](CC(C)C)NC(=O)[C@H](Cc1c[nH]c2ccccc12)NC(=O)[C@H](CC(=O)O)NC(=O)[C@@H](NC(=O)[C@H](Cc1ccccc1)NC(=O)[C@H](CCC(=O)O)NC(=O)[C@H](CCCCN)NC(=O)[C@H](C)NC(=O)[C@H](C)NC(=O)[C@H](CCCCN)NC(=O)[C@H](CCC(=O)O)NC(=O)[C@H](CC(=O)O)NC(=O)[C@H](CC(C)C)NC(=O)[C@H](CCC(N)=O)NC(=O)[C@H](CCC(N)=O)NC(=O)[C@@H](NC(=O)[C@@H](NC(=O)[C@H](CC(=O)O)NC(=O)[C@H](CO)NC(=O)[C@@H](NC(=O)[C@H](Cc1ccccc1)NC(=O)[C@@H](NC(=O)CNC(=O)[C@H](CCC(=O)O)NC(=O)[C@H](C)NC(=O)[C@@H](N)Cc1c[nH]cn1)[C@@H](C)O)[C@@H](C)O)C(C)C)[C@@H](C)O)[C@@H](C)CC)C(=O)N[C@@H](CC(N)=O)C(=O)NCC(=O)NCC(=O)N1CCC[C@H]1C(=O)N[C@@H](CO)C(=O)N[C@@H](CCCCN)C(=O)N[C@@H](CCC(=O)O)C(=O)N[C@H](C(=O)N[C@H](C(=O)N[C@@H](CO)C(N)=O)[C@@H](C)CC)[C@@H](C)CC [compound 11] | 0.59 |  | 
HAEGTYTNDVTEYLEEKAAKEFIEWLIK-NH2 (C-terminus assumed) [compound 25] | 0.53 |  | 
HGEGTYTNDVTQFLEEKAAKEFIDWLIKGKPKKQRLS-NH2 (C-terminus assumed) [compound 55] | 0.576 |  | 
HAEGTFTSDVTQQLDEKAAKEFIDWLINGGASKEIIS-NH2 (C-terminus assumed) [compound 12] | 0.29 |  | 
HAEGTFTSDVTQQLDEKAAKEFIDALINGGPSKEIIS-NH2 (C-terminus assumed) [compound 13] | 196 | 74 | 
HAEGTFTNDMTNYLEEKAAKEFVGWLIKGRS-NH2 (C-terminus assumed) [compound 6] | 1.23 | 1 | 
HAEGTYTNDVTEYLEEKAAKEFIEWLIGKPKKIRYS-NH2 (C-terminus assumed) [compound 35] |  | 0.28 | 
HADGTYTSDVSSYLQDQAAKDFITWLKSGQPKPDAVETRSVDTL-NH2 [compound 49] | 415 |  | 
HAEGTYTNDVTEYLEEKAAKEFIEWLIKGPKKIRYS-NH2 (C-terminus assumed) [compound 36] |  | 0.36 | 
CC[C@H](C)[C@H](NC(=O)[C@H](CC(C)C)NC(=O)[C@H](Cc1c[nH]c2ccccc12)NC(=O)[C@H](CCC(=O)O)NC(=O)[C@@H](NC(=O)[C@H](Cc1ccccc1)NC(=O)[C@H](CCC(=O)O)NC(=O)[C@H](CCCCN)NC(=O)[C@H](C)NC(=O)[C@H](C)NC(=O)[C@H](CCCCN)NC(=O)[C@H](CCC(=O)O)NC(=O)[C@H](CCC(=O)O)NC(=O)[C@H](CC(C)C)NC(=O)[C@H](Cc1ccc(O)cc1)NC(=O)[C@H](CCC(=O)O)NC(=O)[C@@H](NC(=O)[C@@H](NC(=O)[C@H](CC(=O)O)NC(=O)[C@H](CC(N)=O)NC(=O)[C@@H](NC(=O)[C@H](Cc1ccc(O)cc1)NC(=O)[C@@H](NC(=O)CNC(=O)[C@H](CCC(=O)O)NC(=O)[C@H](C)NC(=O)[C@@H](N)Cc1c[nH]cn1)[C@@H](C)O)[C@@H](C)O)C(C)C)[C@@H](C)O)[C@@H](C)CC)C(=O)N[C@@H](CCCCN)C(=O)NCC(=O)N[C@@H](CCCCN)C(=O)N1CCC[C@H]1C(=O)N[C@@H](CCCCN)C(=O)N[C@@H](CCCCN)C(=O)N[C@H](C(=O)N[C@@H](CCCNC(=N)N)C(=O)N[C@@H](Cc1ccc(O)cc1)C(=O)N[C@@H](CO)C(N)=O)[C@@H](C)CC [compound 2] | 0.36 | 0.1 | 
HAEGTYTNDVTEYLEEKAAKEFIEWLIN-NH2 (C-terminus assumed) [compound 24] | 0.85 |  | 
HAEGTFTSDVTQQLDEKAAKEFIDWLINPGSEGIKSI-NH2 (C-terminus assumed) [compound 14] | 18 | 18 | 
HADGTFTNDMTSYLDAKAARDFVSWLARSDKS-NH2 [compound 52] | 382 |  | 
HGEGTYTNDVTEYLEEKAAKEFIEWLIKGKPKKIRYS-NH2 (C-terminus assumed) [compound 26] | 0.967 | 0.11 | 
HAEGTFTSDVTQQLEEKAAKEFIEWLIKGKPKKIRYS-NH2 (C-terminus assumed) [compound 22] | 0.1 |  | 
HAEGTYTNDVTEYLEEKAAKEFIEWLINGGPSKEIIS-NH2 (C-terminus assumed) [compound 21] | 1 |  | 
CC[C@H](C)[C@H](NC(=O)[C@H](CC(C)C)NC(=O)[C@H](Cc1c[nH]c2ccccc12)NC(=O)[C@H](CC(=O)O)NC(=O)[C@@H](NC(=O)[C@H](Cc1ccccc1)NC(=O)[C@H](CCC(=O)O)NC(=O)[C@H](CCCCN)NC(=O)[C@H](C)NC(=O)[C@H](C)NC(=O)[C@H](CCCCN)NC(=O)[C@H](CCC(=O)O)NC(=O)[C@H](CC(=O)O)NC(=O)[C@H](CC(C)C)NC(=O)[C@H](CCC(N)=O)NC(=O)[C@H](CCC(N)=O)NC(=O)[C@@H](NC(=O)[C@@H](NC(=O)[C@H](CC(=O)O)NC(=O)[C@H](CO)NC(=O)[C@@H](NC(=O)[C@H](Cc1ccccc1)NC(=O)[C@@H](NC(=O)CNC(=O)[C@H](CCC(=O)O)NC(=O)[C@H](C)NC(=O)[C@@H](N)Cc1c[nH]cn1)[C@@H](C)O)[C@@H](C)O)C(C)C)[C@@H](C)O)[C@@H](C)CC)C(=O)N[C@@H](CC(N)=O)C(N)=O [compound 7] | 4.7 | 3 | 
HAEGTYTNDVTEYLEEKAAKEFIEWLIPKKIRYS-NH2 (C-terminus assumed) [compound 32] |  | 22 | 
HAEGTYTNDVTEYLEEKAAKFIEWLIKGKPKKIRYS-NH2 (C-terminus assumed) [compound 31] |  | 19 | 
B1 |  |  | IC50 [3]: 15 nM; GLP-1 cAMP (6-23) EC50 [4]: 0.095 nM

From patent US20100009907A1, “Glucagon-Like Peptides and Uses Thereof” (AMYLIN PHARMACEUTICALS, INC., priority 2006, published 2010)
